Laboratory results published in patent US8410161B2, “Thioxanthone ring system derivatives” (National Defense Medical Center, priority 2010, dated 2013).

Legend:
Format in all cases: cell-based
A3 cell lines = test: MTT assay, A3 cell lines (lung cancer stem cell)
From the text: Please to FIG. 4B, various cell viabilities of the A3 cell lines can be obtained through the MTT assay and illustrated in FIG. 4B while the compounds No. 1˜30 are used to treat A3 cell lines, wherein A3 cell lines are lung cancer stem cell.

A control cell lines = test: MTT assay, A control cell lines (lung cancer cell)
From the text: Please refer to Table 1 and FIGS. 4A-4C. According to a MTT assay (Table 1), various cell viabilities of the A control cell lines can be obtained and illustrated in FIG. 4A while the compounds No. 2˜30 are used to treat A control cell lines, wherein A control cell lines are lung cancer cell.

HEL299 fibroblast = test: MTT assay, HEL299 fibroblast
From the text: (§1) Please refer to FIG. 4C, various cell viabilities of the HEL299 cell lines can be obtained through the MTT assay while the compounds No. 1˜30 are used to treat HEL299 cell lines, wherein HEL299 cell lines are fibroblast.

[1] = MTT assay, HEL299 fibroblast; conditions: human
From the text: as §1

SMILES: CC(C)Sc1ccc2c(=O)c3ccccc3sc2c1Cl [No. 4, 4-Chloro-3-(isopropylthio)-9H-thioxanthen-9-one]
- cell viabilities of A3 cell lines (MTT assay) (A3 cell lines): 56.1%
- inhibition effect on A3 cell line (in words) (A3 cell lines; summary of MTT cell viabilities): inhibition effect
- cell viabilities of A control cell lines (MTT assay) (A control cell lines): 91.1 ± 2.02%
- cytotoxicity effect on the normal fibroblast (in words) (HEL299 fibroblast): without the cytotoxicity effect
- viability [1]: 103%
